Measurements: paper PMC7280531, “A PROTAC peptide induces durable β-catenin degradation and suppresses Wnt-dependent intestinal cancer” (Cell Discovery, 2020)
Where a SMILES comes first, the peptide text is derived from it. Bridges are numbered along the chain shown (N, C = ends). [ ]: non-standard residue; d: D form. S5 = C=CCCC[C@](C)(N)C(=O)O; Ahx = NCCCCCC(=O)O

Legend:
intestinal tumors = experiment: Intestinal tumors in APC^min/+ mice
Protocol: Because APC^min/+ mice can develop intestinal tumors around 10 weeks-old[26], the 11 weeks-old APC^min/+ mice were intraperitoneally injected with 30 mg/kg vehicle DMSO or peptides at every other day for 14 days. Then the mice were sacrificed for analysis of intestinal tumors.
Tumor number of the whole intestinal tract was analyzed in the lower panel.

APC^−/− organoids = experiment: APC^−/− mouse intestinal organoid culture; format: cell-based
LoVo cells [1] = experiment: Tumor formation in nude mice from pretreated LoVo cells; format: in vivo, BALB/C nude mice
Protocol: Next, to examine the influence of the peptides on tumor formation, 3 × 10^6 LoVo cells were pretreated with each peptide at 50 μM for 24 h, followed by subcutaneous injection into BALB/C nude mice. After 3 weeks when tumors were visible, the mice were sacrificed for comparison of subcutaneous tumors among different groups.
LoVo cells cultured were pretreated with DMSO pr peptides (50 μM) for 24 h. Then the cells were digested with trypsin and centrifuge (3 min at 300–400 g). Cell pellets were washed with cold PBS three times and the cell number was counted. The BALB/C nude mice were subcutaneously injected with 3 × 10^6 cells. Three weeks later, the nude mice were sacrificed and dissected for tumors. Tumor weight was quantified.

wild-type organoids = experiment: Wild-type mouse intestinal organoid culture; format: cell-based; details: 10 μM peptides
Protocol: Fig. 5 xStAx-VHLL inhibits the growth of wild-type and APC^−/− organoids. a Wild-type organoids were cultured with 10 μM peptides for 4 days. The trypan blue staining at day 4 indicated the dead organoids. Scale bar = 100 μm. […] Relative β-catenin and cleaved caspase3 protein levels were quantified. e Wild-type organoids were cultured with 10 μM peptides for 3 h and harvested for qPCR analysis of Wnt target genes. f APC^−/− organoids were cultured with 50 μM peptides for 4 days. The trypan blue staining at day 4 indicated the dead organoids. Scale bar = 100 μm. […] Relative β-catenin and cleaved caspase3 protein levels were quantified. The relative band intensity was quantified with ImageJ and normalized to GAPDH levels.
Mouse intestinal crypts isolation and organoid culture were performed as previously described. Briefly, mouse intestine was cut longitudinally and washed three times with cold PBS. Villi were carefully scraped away and small pieces (5 mm) of intestine were incubated in 0.5 M EDTA in PBS for 40 min on ice. These pieces were then vigorously suspended in cold PBS and the mixture was passed through 70 μm cell strainer (BD Biosciences). The crypt fraction was enriched through centrifugation (3 min at 300–400 g). Then the crypts were embedded in Matrigel (BD Biosciences) and seeded on 48-well or 24-well plates. The intestinal organoid culture medium consists of Advanced DMEM/F12 supplemented with Penicillin/Streptomycin, GlutaMAX-I, N2, B27 and N-acetylcysteine (Sigma-Aldrich) and combination of growth factors including EGF (50 ng/mL, Invitrogen), Noggin (100 ng/mL, R&D) and R-spondin1 (500 ng/mL). The organoids were treated with proper dilution of peptides in the medium.
Supplementary Fig. S7. xStAx-VHLL restricts Lgr5+ intestinal stem cell
population and cell viability in intestinal organoids.
The organoids derived from the small intestine of Lgr5-GFP mice were treated with
10 μM peptides for 36 h and then collected for CytoFLEX flow cytometry to count
Lgr5+ intestinal stem cells (a) or viable cells (b). Data from 3 independent
(1 picture or pasted object on this page, not shown here)

β-catenin = β-catenin immunoblotting in colorectal cancer cells (HCT116, SW480, LoVo); format: cell-based; details: for β-catenin protein level, MSAB versus xStAx-VHLL: 50 μM xStAx-VHLL
Protocol: Relative
β-catenin protein level was quantified with ImageJ and normalized to GAPDH. Data […]
(b) LoVo cells were treated with 50 μM xStAx (xS), 50 μM
immunoblotting. (c, d) LoVo (c) and SW480 (d) cells were treated with different

HCT116 cells = experiment: Cell proliferation assay (CCK-8), HCT116 cells; format: cell-based; details: 50 μM peptides, 6 days, cell number counted each day
Protocol: (§1) Equal number of cells (8000–10,000 cells) were seeded in the 24-well plates and then subjected to different treatments. The cell numbers were counted every 24 h with the CCK-8 cell counting kit (Dojindo Molecular Technologies) according to manufacturer’s instructions.

LoVo cells [2] = experiment: Cell proliferation assay (CCK-8), LoVo cells; format: cell-based; details: 6 days
Protocol: as §1

[3] = 50 μM peptides, 24 h, immunoblot
[4] = Lgr5-GFP organoids, 36 h, flow cytometry

CC[C@H](C)[C@@H]1NC(=O)[C@@](C)(NC(=O)[C@H](CCCNC(=N)N)NC(=O)[C@@H]2CCCN2C(=O)[C@H](Cc2c[nH]c3ccccc23)NC(=O)[C@H](CCCNC(=N)N)NC(=O)[C@H](CCCNC(=N)N)NC(C)=O)CCCC=CCCC[C@@](C)(C(=O)N[C@@H](Cc2c[nH]cn2)C(=O)N[C@H](C(=O)N[C@@H](CCCNC(=N)N)C(=O)N[C@@H](CCCNC(=N)N)C(=O)N[C@H](C(=O)N[C@@H](Cc2c[nH]c3ccccc23)C(=O)N[C@@H](CCCNC(=N)N)C(=O)NCCCCCC(=O)N[C@@H](C)C(=O)N[C@@H](CC(C)C)C(=O)N[C@@H](C)C(=O)N2CCC[C@H]2C(=O)N[C@@H](Cc2ccc(O)cc2)C(=O)N[C@H](C(=O)N2CCC[C@H]2C(N)=O)[C@@H](C)CC)C(C)C)C(C)C)NC(=O)[C@H](CC(=O)O)NC(=O)[C@H](CC(C)C)NC1=O [xStAx-VHLL] (Ac-RRWPR[S5]ILD[S5]HVRRVWR[Ahx]ALAPYIP-NH2; staple 6-10; N-terminus and C-terminus assumed)
active β-catenin protein level in small intestine (intestinal tumors; 30 mg/kg i.p. 7 times, immunoblot, compared with the vehicle group): also decreased
intestinal tumor number (intestinal tumors; 11 weeks-old mice, 30 mg/kg i.p. every other day for 14 days (7 times), vs day 0 or DMSO): dramatically reduced tumor number
APC^−/− organoid survival, MSAB versus xStAx-VHLL (APC^−/− organoids; 10 μM MSAB or 50 μM xStAx-VHLL, 4 days): strong inhibition
growth of APC^−/− organoids (APC^−/− organoids; 50 μM peptide, 4 days): significantly impeded the growth
cleaved caspase 3 (APC^−/− organoids; [3]): increased
β-catenin protein level (APC^−/− organoids; [3]): greatly decreased
expression of Wnt target genes Axin2, Cyclin D1 and Myc (APC^−/− organoids; qPCR): downregulated
subcutaneous tumor size and weight (LoVo cells [1]; 3 × 10^6 LoVo cells pretreated with 50 μM peptide for 24 h, s.c. injection, 3 weeks, n = 10 mice per group): significantly smaller in size and weight
β-catenin protein level in tumor extracts (LoVo cells [1]; tumors from pretreated LoVo cells, immunoblot, compared with other groups): apparently decreased
Wnt target genes Axin2, Cyclin D1 and Myc in tumors (LoVo cells [1]; tumors from pretreated LoVo cells, qPCR): also decreased
Wnt signaling target genes Lgr5, Axin2, Cyclin D1 and Myc (wild-type organoids; 3 h, qPCR): remarkably decreased
cleaved caspase 3 level (wild-type organoids; 24 h, immunoblot): increased the cleaved caspase 3 level
β-catenin protein level (wild-type organoids; 24 h, immunoblot): reduced the β-catenin protein level
organoid survival and bud formation (wild-type organoids; 4 days): obviously impeded organoid survival and bud formation
Lgr5+ intestinal stem cells (wild-type organoids; [4]): reduced
viable cell population (wild-type organoids; [4]): also decreased
dose dependence of β-catenin degradation (β-catenin; CRC cells (HCT116, LoVo, SW480), indicated concentrations, 24 h): dose-dependent manner
β-catenin level after wash-out of the peptide (β-catenin; HCT116, 50 μM peptide 24 h, then fresh medium 24 or 48 h): remained low after 24 h
β-catenin degradation in colorectal cancer cells (β-catenin; HCT116, SW480 or LoVo, 50 μM peptides, 24 h, immunoblot): promotes the degradation of β-catenin
β-catenin protein level, MSAB versus xStAx-VHLL (β-catenin; HCT116 and SW480, 10 μM MSAB, 24 h): decreased β-catenin protein to a comparable level
β-catenin protein level, MSAB versus xStAx-VHLL (β-catenin; LoVo, 10 μM MSAB, 24 h): able to reduce the β-catenin protein level
proliferation of HCT116 cells (HCT116 cells): significantly attenuated the proliferation
proliferation of LoVo cells (LoVo cells [2]; 50 μM peptides, cell number counted each day): significantly attenuated the proliferation
proliferation of LoVo cells, MSAB versus xStAx-VHLL (LoVo cells [2]; 1 × 10^4 cells, 10 μM MSAB or 50 μM xStAx-VHLL): hampered by xStAx-VHLL
